Results on two compounds are retold here after US20240287042A1, “NOVEL COMPOUND HAVING INHIBITORY ACTIVITY AGAINST PENDRIN, AND PHARMACEUTICAL USES THEREOF” (UIF (University Industry Foundation), Yonsei University, priority 2021, published 2024).

For this experiment, the target named is T1, human wild-type (WT)-SLC26A3 (Homo sapiens, UniProt P40879).
T1 construct: expressed in transfected cells
T1 sequence (P40879 1-764): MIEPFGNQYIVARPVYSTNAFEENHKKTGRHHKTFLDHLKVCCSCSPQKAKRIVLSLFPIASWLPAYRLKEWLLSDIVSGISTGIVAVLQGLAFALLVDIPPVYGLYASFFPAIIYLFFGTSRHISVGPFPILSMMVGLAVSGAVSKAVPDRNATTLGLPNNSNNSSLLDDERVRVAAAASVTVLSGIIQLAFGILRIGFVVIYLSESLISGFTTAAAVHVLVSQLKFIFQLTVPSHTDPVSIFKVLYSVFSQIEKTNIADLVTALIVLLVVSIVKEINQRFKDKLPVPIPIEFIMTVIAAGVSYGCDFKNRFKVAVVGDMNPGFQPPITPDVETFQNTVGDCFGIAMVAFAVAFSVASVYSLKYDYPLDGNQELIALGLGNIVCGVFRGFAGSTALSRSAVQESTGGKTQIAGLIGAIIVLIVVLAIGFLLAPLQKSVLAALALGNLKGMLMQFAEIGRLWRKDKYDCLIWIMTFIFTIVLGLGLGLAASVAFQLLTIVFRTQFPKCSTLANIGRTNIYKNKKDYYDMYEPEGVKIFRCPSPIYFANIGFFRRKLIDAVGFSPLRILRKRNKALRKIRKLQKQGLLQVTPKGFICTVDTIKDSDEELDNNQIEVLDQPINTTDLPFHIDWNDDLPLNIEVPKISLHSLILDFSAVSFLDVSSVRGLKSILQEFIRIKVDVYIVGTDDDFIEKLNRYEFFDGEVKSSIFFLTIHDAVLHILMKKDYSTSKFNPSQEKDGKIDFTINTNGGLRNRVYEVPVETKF
In words: SLC26A3 Cl−/I− exchange activity, YFP fluorescence in LN-215 cells. The note with it: for IC50: LN-215-YFP cells, FIG. 2, read-out: IC50 of Cl−/I− anion exchange by SLC26A3. It counts as cell-based. The procedure:
LN-215 cells were cultured in DMEM medium containing 10% fetal bovine serum (FBS), 100 units/ml of penicillin and 100 μg/ml streptomycin. LN-215 cells were stably transfected with pcDNA3.1 encoding the halide sensor YFP-H148Q/I152L/F46L and human wild-type (WT)-SLC26A3.
LN-215 cells expressing human WT SLC26A3 and YFP-F46L/H148Q/I152L were plated in 96-well microplates at a density of 2×10^4 cells per well, and cultured for 48 hours. Each well of the cell cultured 96-well plate was washed 2 times with 200 μL of PBS, and filled with 50 μL of HEPES buffered solution (140 mM NaCl, 5 mM KCl, 1 mM MgCl2, 1 mM CaCl2), 10 mM glucose and 10 mM HEPES (pH 7.4)). Test compounds (1 μL) were added to a final concentration of 100 μM. After culturing at 37° C. for 10 minutes, the 96-well plate was located on the FLUOstar Omega Microplate Reader (BMG Labtech, Ortenberg, Germany) for a fluorescence assay. Fluorescence was recorded continuously (400 ms per point) for 1 second (baseline), whereby each well was assayed individually for SLC26A3-mediated I-influx. Then, 50 μL of NaI-substituted HEPES buffered solution (replacing NaCl with NaI) was added using a liquid injector at 1 second, and YFP fluorescence was recorded for 5 seconds. The initial iodide influx rate was determined from the initial slope of fluorescence by nonlinear regression, after the injection of iodide.
In the case of SLC26A3 and SLC26A6, each transporter protein and halide sensitive YFP were expressed in LN-215 cells to measure the activity of the transporter protein.
Other details were carried out in the same manner as Example 5.

Each structure is given as a SMILES string.

As for `Cc1ccc(C)c(N2CCN(C(=O)Cc3c(C(=O)O)[nH]c4ccc(Cl)cc34)CC2)c1` [YPI-H05, 5-chloro-3-(2-(4-(2,5-dimethylphenyl)piperazin-1-yl-)-2-oxoethyl)-1H-indole-2-carboxylic acid], the IC50 amounted to 3.8 µM.
For the compound `Cc1ccc2[nH]c(C(=O)O)c(CC(=O)N3CCN(c4c(C)cccc4Cl)CC3)c2c1` [YPI-A4948, 3-(2-(4-(2-Chloro-6-methylphenyl)piperazin-1-yl)-2-oxoethyl)-5-methyl-1H-indole-2-carboxylic acid], the “Selectivity for pendrin than SLC26A3” value was “about 18 times” and the IC50 amounted to 11.4 µM.
